Reference: article PMC6980506, “Comparative pharmacokinetics and pharmacodynamics of the advanced Retinol-Binding Protein 4 antagonist in dog and cynomolgus monkey” (PLoS ONE, 2020)
Several values for one entry are separate records, joined by “and”; a condition that tells them apart may be missing. Equal values may be shown once. Read-outs that look alike come from different tables or passages of the source.

Columns and labels:
[1] = test system: cytochrome (CYP) P450 enzymes; parameters: method as in PMID 26181715; settings: all standard CYP P450 enzymes; read-out: CYP inhibition IC50; cited from earlier work
bisretinoid synthesis = test system: bisretinoid synthesis; parameters: method as in PMID 29871924; settings: Abca4-/- mouse model of Stargardt disease; cited from earlier work
[2] = Single dose pharmacokinetic study in beagle dog; type: in vivo; settings: for Plasma level, Individual animals / concentration at 0.083 h / concentration at 0.25 h / concentration at 0.5 h / concentration at 1 h / concentration at 2 h / concentration at 4 h / concentration at 6 h: male beagle dog; for concentration at 0.083 h / concentration at 0.25 h / concentration at 0.5 h / concentration at 1 h / concentration at 2 h / concentration at 4 h / concentration at 6 h: male, beagle, dog, plasma, iv
Method: Pharmacokinetic studies were conducted in male beagle dogs and male cynomolgus monkeys at SRI International, Menlo Park, CA. General procedures for animal care and housing were in accordance with the National Research Council (NRC) Guide for the Care and Use of Laboratory Animals (1996) and the Animal Welfare Standards incorporated in 9 CFR Part 3, 1991 and complied with guidelines set forth by the ARVO Animal Statement for the Use of Animals in Ophthalmic and Vision Research. During the course of the PK experiments, cynomolgus monkeys were individually housed in stainless steel primary enclosures in an AAALAC-accredited facility. Animals were fed a commercial monkey chow, and supplemental food was provided (fresh fruits, vegetables, seeds, and nuts). Reverse osmosis-purified drinking water was available at all times. Cynomolgus monkeys were maintained on a 12:12 hour light:dark cycle at the 64–84°F temperature and 30–70% humidity. Monkeys had access to enrichment opportunities (grooming devices, foraging devices, activity panels and mirrors) and were provided auditory stimuli and human interaction enrichment throughout the study. Blood samples were collected by venipuncture of a peripheral vein. Animals were acclimated to the squeeze back mechanism in their home cage by repeated, short periods of restraint during general husbandry procedures for at least 2 weeks prior to dosing. Animal were not removed from their cages for collection, and no anesthesia/analgesic agents were used for blood collection. […] For PK experiments, beagle dogs were individually housed in enclosed run (≥ 4 ft x 6 ft). Dogs were exposed to their daily ration of food, Harlan Teklad 2025C Certified Global 25% Protein Dog Diet. Water was provided from the public water supply (municipal tap water) ad libitum. Dogs were maintained on a 12:12 hour light:dark cycle at the 72–73°F temperature and 40–71% humidity. Every effort was made to minimize, if not eliminate, pain and suffering in all animals in this study. No restraining devices were used in blood collecting procedures. Dogs were gentle hand-held to restrain by trained technicians with the dogs foreleg extended for sample collection of blood from cephalic vein. Animals were awake during blood sample collection with no anesthesia/analgesic agents used, and positive reinforcement by the technician was provided following collection. […] All dogs were released back to the colony after the study was completed. Male beagle dogs and male cynomolgus monkey received a single i.v. dose of a test compound at 0.5 mg kg^−1 (dog) and 1 mg kg^−1 (monkey) or a single p.o. dose of a test compound of at 2 mg kg^−1 (dog) and 5 mg kg^−1 (monkey). The number of animals that was used in PK experiments is 3 per study group. Intravenous administration vehicle was 3% DMA/45% PEG300/12% ethanol/40% sterile water; p.o. vehicle was 2% Tween 80 in 0.9% saline. […] Blood samples were processed to plasma. Following protein extraction with acetonitrile, compound concentrations in plasma were measured by LC-MS/MS. The plasma drug level data were analyzed using WinNonlin software package; Model 201 (for i.v. bolus administration);was used for the analysis of i.v. data, and Model 200 (for extravascular administration) was used for the analysis of the p.o. data. Aliquots of pre-dose plasma samples, as well as aliquots of plasma PK samples, were used for the analysis of the plasmabiomarker, RBP4.

In the case of `Cc1cc(C(=O)O)nc(N2C[C@H]3C[C@@H](c4ccccc4C(F)(F)F)C[C@H]3C2)n1` [BPN-14136], the IC50 [1] is given as greater than 34 µM, the bisretinoid synthesis (bisretinoid synthesis) is given as “significantly inhibited bisretinoid synthesis” and the “%F, bioavailability” value ([2]; Dog, 2.0 mg kg^−1 p.o. vs 0.5 mg kg^−1 i.v.) is given as 84.2 ± 10.4%. The “plasma concentrations of compound” value ([2]; dog plasma at 24, 36, and 48 hours after 2 mg kg^−1 oral dosing) was 70 to 500 ng/mL, the “Plasma level, Individual animals” value ([2]; iv 0.5 mg/kg, 0.083 hr, 0.5 mg/kg) was 2750 ng/mL and 2650 ng/mL and the “Plasma level, Individual animals” value ([2]; iv 0.5 mg/kg, 0.25 hr, 0.5 mg/kg) was 2090 ng/mL and 2140 ng/mL. The “Plasma level, Individual animals” value ([2]; iv 0.5 mg/kg, 0.5 hr, 0.5 mg/kg) was 1820 ng/mL and 1800 ng/mL, the “Plasma level, Individual animals” value ([2]; iv 0.5 mg/kg, 1 hr, 0.5 mg/kg) was 1270 ng/mL and 1380 ng/mL and the “Plasma level, Individual animals” value ([2]; iv 0.5 mg/kg, 2 hr, 0.5 mg/kg) was 1060 ng/mL and 1000 ng/mL. For the same molecule, the “Plasma level, Individual animals” value ([2]; iv 0.5 mg/kg, 4 hr, 0.5 mg/kg) was 492 ng/mL and 458 ng/mL, the “Plasma level, Individual animals” value ([2]; iv 0.5 mg/kg, 6 hr, 0.5 mg/kg) was 284 ng/mL and 281 ng/mL and the “Plasma level, Individual animals” value ([2]; iv 0.5 mg/kg, 8 hr, 0.5 mg/kg) was 203 ng/mL and 207 ng/mL. For the same molecule, the “Plasma level, Individual animals” value ([2]; iv 0.5 mg/kg, 12 hr, 0.5 mg/kg) was 69.2 ng/mL and 141 ng/mL and 111 ng/mL, the “Plasma level, Individual animals” value ([2]; iv 0.5 mg/kg, 24 hr, 0.5 mg/kg) was 186 ng/mL and 171 ng/mL and the “Plasma level, Individual animals” value ([2]; iv 0.5 mg/kg, 36 hr, 0.5 mg/kg) was 47.1 ng/mL and 42.5 ng/mL. For the same molecule, the “Plasma level, Individual animals” value ([2]; iv 0.5 mg/kg, 48 hr, 0.5 mg/kg) was 102 ng/mL and 93.0 ng/mL, the “Plasma level, Individual animals” value ([2]; po 2 mg/kg, 0.25 hr, 2 mg/kg) was 9280 ng/mL and 4890 ng/mL and the “Plasma level, Individual animals” value ([2]; po 2 mg/kg, 0.5 hr, 2 mg/kg) was 7730 ng/mL and 6080 ng/mL. The “Plasma level, Individual animals” value ([2]; po 2 mg/kg, 1 hr, 2 mg/kg) was 6080 ng/mL and 5100 ng/mL, the “Plasma level, Individual animals” value ([2]; po 2 mg/kg, 2 hr, 2 mg/kg) was 4460 ng/mL and 4300 ng/mL and the “Plasma level, Individual animals” value ([2]; po 2 mg/kg, 4 hr, 2 mg/kg) was 2560 ng/mL and 2080 ng/mL. For the same molecule, the “Plasma level, Individual animals” value ([2]; po 2 mg/kg, 8 hr, 2 mg/kg) was 971 ng/mL and 885 ng/mL, the “Plasma level, Individual animals” value ([2]; po 2 mg/kg, 10 hr, 2 mg/kg) was 581 ng/mL and 690 ng/mL and the “Plasma level, Individual animals” value ([2]; po 2 mg/kg, 12 hr, 2 mg/kg) was 391 ng/mL and 753 ng/mL. For the same molecule, the “Plasma level, Individual animals” value ([2]; po 2 mg/kg, 24 hr, 2 mg/kg) was 542 ng/mL and 277 ng/mL, the “Plasma level, Individual animals” value ([2]; po 2 mg/kg, 36 hr, 2 mg/kg) was 95.3 ng/mL and 105 ng/mL and the “Plasma level, Individual animals” value ([2]; po 2 mg/kg, 48 hr, 2 mg/kg) was 152 ng/mL and 160 ng/mL and 67.0 ng/mL. It also gave a concentration at 0.083 h ([2]; 0.5 mg/kg, iv 0.5 mg/kg, 0.083 hr, read-out: Plasma level, Individual animals) of 2660 ng/mL, a concentration at 0.083 h ([2]; 0.5 mg/kg, iv 0.5 mg/kg, 0.083 hr, read-out: Plasma level, Mean) of 2690 ng/mL and a concentration at 0.25 h ([2]; 0.5 mg/kg, iv 0.5 mg/kg, 0.25 hr, read-out: Plasma level, Individual animals) of 2000 ng/mL. For the same molecule, the concentration at 0.25 h ([2]; 0.5 mg/kg, iv 0.5 mg/kg, 0.25 hr, read-out: Plasma level, Mean) was 2080 ng/mL, the concentration at 0.5 h ([2]; 0.5 mg/kg, iv 0.5 mg/kg, 0.5 hr, read-out: Plasma level, Individual animals) was 1690 ng/mL and the concentration at 0.5 h ([2]; 0.5 mg/kg, iv 0.5 mg/kg, 0.5 hr, read-out: Plasma level, Mean) was 1770 ng/mL. For the same molecule, the concentration at 1 h ([2]; 0.5 mg/kg, iv 0.5 mg/kg, 1 hr, read-out: Plasma level, Individual animals) was 1500 ng/mL, the concentration at 1 h ([2]; 0.5 mg/kg, iv 0.5 mg/kg, 1 hr, read-out: Plasma level, Mean) was 1380 ng/mL and the concentration at 2 h ([2]; 0.5 mg/kg, iv 0.5 mg/kg, 2 hr, read-out: Plasma level, Individual animals) was 1020 ng/mL. For the same molecule, the concentration at 2 h ([2]; 0.5 mg/kg, iv 0.5 mg/kg, 2 hr, read-out: Plasma level, Mean) was 1030 ng/mL, the concentration at 4 h ([2]; 0.5 mg/kg, iv 0.5 mg/kg, 4 hr, read-out: Plasma level, Individual animals) was 442 ng/mL and the concentration at 4 h ([2]; 0.5 mg/kg, iv 0.5 mg/kg, 4 hr, read-out: Plasma level, Mean) was 464 ng/mL. For the same molecule, the concentration at 6 h ([2]; 0.5 mg/kg, iv 0.5 mg/kg, 6 hr, read-out: Plasma level, Individual animals) was 308 ng/mL and the concentration at 6 h ([2]; 0.5 mg/kg, iv 0.5 mg/kg, 6 hr, read-out: Plasma level, Mean) was 291 ng/mL.
